According to patent publication US4272517A, “Permanent waving compositions” (Kanegafuchi Kagaku Kogyo Kabushiki Kaisha, priority 1978, dated 1981):

How the values were obtained:
[1] = Acute oral toxicity (LD50) determined on mice; format: in vivo; conditions: mouse, in vivo, oral administration
Description: (§1) The N-carbamoylcysteine to be used in this invention is preferably N-carbamoyl-L-cysteine or N-carbamoyl-DL-cysteine from the viewpoint of practical usefulness but can be N-carbamoyl-D-cysteine. N-carbamoyl-L-cysteine can be prepared easily, for example, by reacting L-cysteine with potassium cyanate. Since it is possible to synthesize N-carbamoyl-DL-cysteine from an inexpensive industrial material, the compound can presumably be prepared more economically than N-carbamoyl-L-cysteine.

[2] = tested on: mice; experiment: Acute oral toxicity (LD50) determined on mice; format: in vivo; conditions: oral administration
Description: as §1

[3] = format: physicochemical
Experimental: Eleven kinds of test solutions were prepared with use of L-cysteine and N-carbamoylcysteine in varying ratios as shown in Table 3 to test the solutions for storage stability. Basically these solutions have the following composition.
Each of the solutions was prepared by adding monoethanolamine (about 3 ml), L-cysteine, N-carbamoyl-L-cysteine and tetrasodium ethylenediaminetetraacetate to about 80 ml of purified water in the order mentioned with stirring, and adjusting the resulting solution to 100 ml with its pH adjusted to 9.1 with monoethanolamine. […] Test Solution A is a reference example.
The test solutions were prepared on the same day, placed into 200-ml colorless wide-mouthed reagent bottles respectively and allowed to stand at room temperature (20° to 26° C.) for 60 days with the mouths of the bottles left open. Consequently white powder of cystine separated out on the 9th day from Test Solution A containing L-cysteine alone, whereas Test Solutions B and C further containing N-carbamoyl-L-cysteine yielded white powder on the 15th day and 32nd day respectively. No powdery deposition was found in Test Solutions D to K even after the lapse of 60 days. […]

[4] = Solubility; format: physicochemical; conditions: at a pH of below 8.7
[5] = background statement; cited from earlier work

Row | Compound | LD50 [1] [mg/kg] | toxicity (in words) [2] | stabilizing effect on cysteine (in words) [3] | other results
1 | NC(=O)NC(CS)C(=O)O (racemic) [N-carbamoyl-DL-cysteine] | 13100 | extremely low in toxicity | – | –
2 | CC(=O)N[C@@H](CS)C(=O)O [N-acetylcysteine, N-acetyl-L-cysteine, reference compound] | – | – | adds to the stability of cysteine | –
3 | NC(=O)N[C@@H](CS)C(=O)O [N-carbamoyl-L-cysteine] | 13500 | extremely low in toxicity | – | –
4 | NC(=O)N[C@@H](CS)C(=O)O [N-carbamoylcysteine] | – | – | exceedingly superior | solubility (in words) [4]: not easily soluble
5 | N[C@@H](CSSC[C@H](N)C(=O)O)C(=O)O [cystine] | – | – | – | solubility in water (in words) [5]: hardly soluble in water
